Patent US6794560B2, “Nucleic acid encoding GAI gene of Arabidopsis thaliana” (Pioneer Hi-Bred International, Inc., priority 1996, dated 2004)

Tests used:
[1] = test system: stimulation of cell elongation, leaf senescence or elicitation of the cereal aleurone α-amylase response; settings: structure-activity statement; cited from earlier work
gai mutants = settings: cited from earlier work
gai-t6 mutant = experiment: growth on medium containing paclobutrazol; assay type: in vivo, Arabidopsis thaliana; settings: grown on medium containing paclobutrazol
Description: The slender mutants of pea and barley are resistant to the dwarfing effects of paclobutrazol^38-42, as is the Arabidopsis constitutive GA-response mutant spy^43,44. Thus, in these mutants stem elongation is at least partially uncoupled from the GA-mediated control characteristic of normal plants. […] Put another way, a GAI null mutant appears to require less endogenous GA to achieve a certain degree of growth than does a normal plant. GA-dependency is not completely abolished by gai-t6 possibly because the products of genes related in sequence to GAI (see above) can substantially, but not completely, compensate for loss of GAI function.

kaurene oxidase reaction = target: T1, kaurene oxidase reaction (Arabidopsis thaliana, UniProt Q93ZB2); settings: cited from earlier work
T1 sequence (Q93ZB2 1-509): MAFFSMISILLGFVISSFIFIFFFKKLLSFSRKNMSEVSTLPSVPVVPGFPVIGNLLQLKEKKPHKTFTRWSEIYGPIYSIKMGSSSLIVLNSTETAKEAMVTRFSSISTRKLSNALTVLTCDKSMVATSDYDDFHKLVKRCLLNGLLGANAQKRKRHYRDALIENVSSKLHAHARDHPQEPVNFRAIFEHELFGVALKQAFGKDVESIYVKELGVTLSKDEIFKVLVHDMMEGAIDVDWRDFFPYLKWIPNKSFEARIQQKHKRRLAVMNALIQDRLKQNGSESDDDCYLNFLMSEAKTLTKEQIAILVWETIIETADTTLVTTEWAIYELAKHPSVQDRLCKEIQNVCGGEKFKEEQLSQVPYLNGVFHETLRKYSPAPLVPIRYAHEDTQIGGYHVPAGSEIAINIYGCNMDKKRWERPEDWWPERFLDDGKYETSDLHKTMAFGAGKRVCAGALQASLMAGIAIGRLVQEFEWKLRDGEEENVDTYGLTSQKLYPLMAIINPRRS

plants = settings: reduces endogenous GA levels; cited from earlier work

Compound	biological activity of gibberellin [1]	response of gai mutants to GA treatment (gai mutants)	other results
C=C1C[C@]23C[C@@]1(O)CC[C@H]2[C@@]12C[C@H](O)[C@H](O)[C@@](C)(C(=O)O1)[C@H]2[C@@H]3C(=O)O [GA8]	inactivity		
C=C1C[C@]23C[C@@]1(O)CC[C@H]2[C@@]12CC[C@H](O)[C@@](C)(C(=O)O1)[C@H]2[C@@H]3C(=O)O [GA1]	high biological activity	do not respond	
C=C1C[C@]23C[C@H]1CC[C@H]2[C@@]12CC[C@H](O)[C@@](C)(C(=O)O1)[C@H]2[C@@H]3C(=O)O [GA4]	high biological activity	do not respond	
C=C1C[C@]23C[C@@]1(O)CC[C@H]2[C@@]12C=C[C@H](O)[C@@](C)(C(=O)O1)[C@H]2[C@@H]3C(=O)O [GA3]		do not respond	
CC(C)(C)[C@@H](O)[C@@H](Cc1ccc(Cl)cc1)n1cncn1 (racemic) [Paclobutrazol]			floral bolt stem length of gai-t6 mutants vs GAI control plants (gai-t6 mutant): longer floral bolt stems than GAI control plants; inhibition of GA biosynthesis (kaurene oxidase reaction): specifically inhibits GA biosynthesis; phenotype of plants exposed (plants): conferring a dwarf phenotype
C=C1C[C@]23C[C@H]1CC[C@H]2[C@@]12C[C@H](O)[C@H](O)[C@@](C)(C(=O)O1)[C@H]2[C@@H]3C(=O)O [GA34]	inactivity		
C=C1C[C@]23C[C@H]1CC[C@H]2[C@@]12C[C@H](O)C[C@@](C)(C(=O)O1)[C@H]2[C@@H]3C(=O)O [GA51]	inactivity		
C=C1C[C@]23C[C@@]1(O)CC[C@H]2[C@@]12C[C@H](O)C[C@@](C)(C(=O)O1)[C@H]2[C@@H]3C(=O)O [GA29]	inactivity		
C=C1C[C@]23C[C@H]1CC[C@H]2[C@@]12C=C[C@H](O)[C@@](C)(C(=O)O1)[C@H]2[C@@H]3C(=O)O [GA7]	high biological activity		
